In patent US20040009464A1, “Methods for identifying compounds for inhibition of neoplastic lesions, and pharmacetical compositions containing such compounds” (priority 1998, published 2004):

Legend:
[1] = tested on: HT-29 cells; experiment: Apoptosis and necrosis by morphology (acridine orange/ethidium bromide) in HT-29 cells; assay type: cell-based, human; details: HT-29 treated for six days
Description: Apoptosis occurs naturally during normal tissue turnover and during embryonic development of organs and limbs. Apoptosis also is induced by cytotoxic T-lymphocytes and natural killer cells, by ionizing radiation and by certain chemotherapeutic drugs. Inappropriate regulation of apoptosis is thought to play an important role in many pathological conditions including cancer, AIDS, or Alzheimer's disease, etc. Compounds can be screened for induction of apoptosis using cultures of tumor cells maintained under conditions as described above. Treatment of cells with test compounds involves either pre- or post-confluent cultures and treatment for two to seven days at various concentrations. Apoptotic cells are measured in both the attached and “floating” compartments of the cultures. Both compartments are collected by removing the supernatant, trypsinizing the attached cells, and combining both preparations following a centrifugation wash step (10 minutes, 2000 rpm). The protocol for treating tumor cell cultures with sulindac and related compounds to obtain a significant amount of apoptosis has been described in the literature. […]
The apoptosis inducing activity for a series of phosphodiesterase inhibitors was determined. […] Apoptosis and necrosis were determined morphologically after acridine orange and ethidium bromide labeling in accordance with the assay described, supra.

[2] = tested on: β-catenin and PKG in SW480 cells; experiment: Western blot of β-catenin and PKG in SW480 cells; assay type: cell-based, human
Method: SW480 cells treated with exisulind as described previously are harvested from the microfuge tubes by rinsing once with ice-cold PBS. The cells are lysed by modified RIPA buffer for 15 minutes with agitation. The cell lysate is spun down in a cold room. The supernatants are transferred to fresh microcentrifuge tubes immediately after spinning. BioRad DC Protein Assay (Temecula, CA) is performed to determine the protein concentrations in samples. The samples are normalized for protein concentration, as described above.
50 μg of each sample is loaded to 10% SDS gel. SDS-PAGE is performed, and the proteins then are transferred to a nitrocellulose membrane. The blotted nitrocellulose membrane are blocked in freshly prepared TBST containing 5% nonfat dry milk for one hour at room temperature with constant agitation.
A goat-anti-PKG primary antibody is diluted to the recommended concentration/dilution in fresh TBST/5% nonfat dry milk. The nitrocellulose membrane is placed in the primary antibody solution and incubated one hour at room temperature with agitation. The nitrocellulose membrane is washed three times for ten minutes each with TBST. […]
This observation was made by culturing SW480 cells with either 200, 400 or 600 μM exisulind or vehicle (0.1% DMSO). […] Immuno-reactive protein can be detected by Western blot. […]

[3] = tested on: polyps in APC patients; experiment: Clinical prevention trial in patients with adenomatous polyposis coli (APC); assay type: in vivo, human
Description: The first clinical trial involved patients with APC. using exisulind. In that study, each patient had already had his/her colon removed, except for a small section of colon adjacent the rectum (where the small intestine was attached) to preserve rectal function. However, such a patient commonly forms polyps in the small remaining colonic section, which polyps require periodic removal (e.g., by electrocautery).
That trial where exisulind was selected was a prevention trial designed to evaluate the anti-neoplastic characteristics of the drug by comparing the cumulative number of new polyps formed over twelve months by the drug and placebo groups. Eligible patients were those who form between 9 and 44 polyps per year. Patients were fully ablated (had all polyps removed) at the start of the study, at the end of 6 months and at the end of 12 months. The study enrolled thirty-four eligible patients. […] Based on the median number of polyps produced in the first six months of the study, patients treated with exisulind developed approximately one-third the number of polyps as patients treated with placebo (median values 9 polyps/year and 26 polyps/year, respectively; p=0.013). […]

[4] = Safety evaluation in exisulind clinical trials; assay type: in vivo
Method: In these exisulind trials and several others involving the drug in other indications, safety was evaluated by monitoring adverse events (AEs), clinical laboratory tests (hematology, serum chemistry, and urinalysis), vital signs (blood pressure, pulse rate, respiratory rate, temperature, and weight), physical examination, and upper endoscopy.

## CC1=C(CC(=O)O)c2cc(F)ccc2/C1=C\c1ccc(S(C)(=O)=O)cc1 [Exisulind, 5-fluoro-2-methyl-1-(p-methylsulfonylbenzylidene)-3-indenylacetic acid]
[1]
  apoptotic and necrotic cell death: capable of causing apoptotic cell death without inducing necrosis
[2]; SW480, 200, 400 or 600 μM, 48 hours, Western blot
  reduction of β-catenin expression compared to control: 50%
[2]; SW480, 48 hours
  PKG level by Western blot: increase of PKG
[3]; entire 12 months of the study
  median number of polyps, entire 12 months: 18 polyps/year
[3]; first six months of the study
  median number of polyps, first six months: 9 polyps/year
[4]; human, in vivo
  clinical safety: No outstanding safety issues have been demonstrated
  dose-limiting adverse events: elevations in liver function tests
[4]; paired biopsies in APC patients
  apoptosis rates in polyp and normal colonic tissues: increased apoptosis rates in polyp, but not normal colonic tissues
